In the test the test system is CD4+ T cells from C3H/HeN lymph nodes. Format: cell-based, mouse. The following applies: n = 5, sc 50 μg peptide with CFA, day 11, 50 μg/mL peptide in vitro.

For the sequence “RNTDGSTDYGILQINSR [HEL, H-2k-restricted HEL45-61 peptide derived from hen egg lysozyme ([…])]”, the “TNF-α, IL-2 and IFN-γ production by CD4+ T cells on in vitro stimulation with the peptide” value was “able to produce TNF-α, IL-2 and IFN-γ”.

(Values after publication PMC4779142, “The fully synthetic MAG-Tn3 therapeutic vaccine containing the tetanus toxoid-derived TT830-844 universal epitope provides anti-tumor immunity” (Cancer Immunology, Immunotherapy : CII, 2016).)
